Source: patent US9969742B2, “Imidazotriazinone compounds” (Ironwood Pharmaceuticals, Inc., priority 2012, dated 2018)
Where two headings read alike, the source gives them in different places.

Assays:
Format in all cases: biochemical
[1] = target: T1, PDE1A (Homo sapiens, UniProt P54750); assay: Phosphodiesterase enzyme screening assay, PDE1A; settings: Table 1; ratio of IC50 values; value greater than 1 indicates greater selectivity for PDE9A2
T1 construct: purchased Reaction Biology Corporation, Malvern, Pa
Source text: (§1) Compounds of the invention were screened against PDE1A, PDE1B, PDE2A, PDE3A, PDE3B, PDE4A1A, PDE4B1, PDE4D3, PDE5A1, PDE6C, PDE7A, PDE8A1, PDE9A2, PDE10A2 AND PDE11A isoforms of the phosphodiesterase enzyme to determine activity and overall selectivity through comparative analysis. […] Where 8-methoxy-IBMX and Zaprinast were used as reference inhibitors.
(§2) The phosphodiesterase enzyme isoforms were obtained from a commercial retailer (Reaction Biology Corporation, Malvern, Pa.) for use in the instant screening assay.
(§3) The analysis was completed using the Caliper LabChip 3000 and a 12-sipper LabChip. LabChip assays are separations-based, meaning that the product and substrate are electrophoretically separated, thereby minimizing interferences and yielding the highest data quality available on any screening platform. […] High Z′ values, few false positives, few false negatives and analytical quality reproducibility are the reasons cited for the increasing reliance on the LabChip assays.
(§4) The off-chip incubation mobility-shift phosphodiesterase assay uses a microfluidic chip to measure the conversion of a fluorescent cyclic AMP substrate to a 5′-AMP product, or a cyclic GMP substrate to a 5′-GMP product. The reaction mixture, from a microtiter plate well, is introduced through a capillary sipper onto the chip, where the fluorescent substrate and product are separated by electrophoresis and detected via laser-induced fluorescence. […] The precision of microfluidics allows researchers to detect subtle interactions between drug candidates and therapeutic targets.
(§5) Reactions were carried out in 100 mM HEPES (pH 7.5), 5 mM MgCl2, 1 mM DTT, 0.003% Brij, 4.0 μM cGMP substrate. The reaction was started by addition of cGMP or cAMP and incubated for 1 hour at R.T. The reaction was terminated by the addition of stop buffer containing 100 mM HEPES (pH 7.5), 15 mM EDTA, 0.015% Brij-35, 5% DMSO. Cyclic AMP/GMP substrate and 5′-AMP/5′-GMP product were separated by charge using electrophoretic mobility shift. Product formed was compared to control wells to determine inhibition or enhancement of enzyme activity.
(§6) Data points were averages of quadruplicate wells and error bars represented the SEM for each point.

[2] = target: T2, PDE1B (Homo sapiens, UniProt Q01064); assay: Phosphodiesterase enzyme screening assay, PDE1B; settings: Table 1; ratio of IC50 values; value greater than 1 indicates greater selectivity for PDE9A2
T2 construct: purchased Reaction Biology Corporation, Malvern, Pa
Source text: as §1, §2, §3, §4, §5, §6

[3] = target: T3, PDE9A2 (Homo sapiens, UniProt O76083); assay: Phosphodiesterase enzyme screening assay, PDE9A2; settings: 4.0 μM cGMP substrate, 1 hour at R.T., read-out: Band (PDE9A2 IC50)
T3 construct: purchased Reaction Biology Corporation, Malvern, Pa
Summary of the method: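 Recombinant enzymes were run in 100 mM HEPES pH 7.5, 5 mM MgCl2, 1 mM DTT, 0.003% Brij with 4.0 μM cGMP substrate, started with cGMP or cAMP, 1 h at RT, and stopped with EDTA. Fluorescent substrate and product were separated by microfluidic mobility shift.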

T2 sequence (Q01064 whole entry): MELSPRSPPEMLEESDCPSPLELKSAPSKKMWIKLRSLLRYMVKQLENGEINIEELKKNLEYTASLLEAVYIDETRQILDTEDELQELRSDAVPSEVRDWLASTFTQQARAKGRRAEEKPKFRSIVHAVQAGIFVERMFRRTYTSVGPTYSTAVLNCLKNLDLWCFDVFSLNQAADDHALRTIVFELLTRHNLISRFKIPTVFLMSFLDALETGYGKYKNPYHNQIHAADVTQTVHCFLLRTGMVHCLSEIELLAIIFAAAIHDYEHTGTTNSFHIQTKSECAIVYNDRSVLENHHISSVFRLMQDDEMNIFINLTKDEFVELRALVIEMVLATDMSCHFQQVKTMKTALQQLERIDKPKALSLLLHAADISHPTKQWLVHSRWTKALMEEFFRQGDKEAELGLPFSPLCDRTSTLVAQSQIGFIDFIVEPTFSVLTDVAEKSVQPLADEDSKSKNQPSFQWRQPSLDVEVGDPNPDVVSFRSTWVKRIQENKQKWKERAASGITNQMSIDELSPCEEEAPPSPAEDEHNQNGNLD
T3 sequence (O76083 1-533 isoform O76083-2): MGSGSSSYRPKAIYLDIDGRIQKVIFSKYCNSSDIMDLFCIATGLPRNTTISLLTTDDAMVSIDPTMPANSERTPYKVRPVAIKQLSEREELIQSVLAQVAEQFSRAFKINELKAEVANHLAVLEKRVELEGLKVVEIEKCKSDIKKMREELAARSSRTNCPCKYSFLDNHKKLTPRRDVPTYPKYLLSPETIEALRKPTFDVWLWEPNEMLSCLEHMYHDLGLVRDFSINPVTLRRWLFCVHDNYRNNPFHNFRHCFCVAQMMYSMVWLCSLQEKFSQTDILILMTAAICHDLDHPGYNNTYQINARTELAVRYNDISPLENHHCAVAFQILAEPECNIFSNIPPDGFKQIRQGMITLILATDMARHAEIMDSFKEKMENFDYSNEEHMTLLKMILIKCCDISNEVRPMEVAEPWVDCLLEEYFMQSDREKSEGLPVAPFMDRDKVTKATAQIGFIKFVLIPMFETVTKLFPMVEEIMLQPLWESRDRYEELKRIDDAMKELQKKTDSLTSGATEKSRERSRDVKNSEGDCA
T1 sequence (P54750 whole entry): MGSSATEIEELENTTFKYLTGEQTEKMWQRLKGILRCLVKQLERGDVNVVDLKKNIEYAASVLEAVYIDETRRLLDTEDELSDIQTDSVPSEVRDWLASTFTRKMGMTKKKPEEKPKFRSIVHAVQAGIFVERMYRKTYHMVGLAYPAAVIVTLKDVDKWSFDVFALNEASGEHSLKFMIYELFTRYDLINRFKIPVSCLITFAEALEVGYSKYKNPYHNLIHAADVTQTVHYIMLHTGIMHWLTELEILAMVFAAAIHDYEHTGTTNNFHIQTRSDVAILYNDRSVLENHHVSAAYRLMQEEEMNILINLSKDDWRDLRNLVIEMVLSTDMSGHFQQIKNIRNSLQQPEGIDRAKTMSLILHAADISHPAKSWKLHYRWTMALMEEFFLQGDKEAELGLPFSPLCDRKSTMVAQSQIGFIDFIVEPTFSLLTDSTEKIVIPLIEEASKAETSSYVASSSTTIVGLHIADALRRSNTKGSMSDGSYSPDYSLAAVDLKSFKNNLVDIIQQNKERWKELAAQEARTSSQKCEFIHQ

Row | Compound | IC50 ([3]; Table 1, 10 concentrations) [nM] | further results
1 | CC1CN(Cc2ccccc2)CC1c1nn2c(C3CCCOC3)ncc2c(=O)[nH]1 (single isomer, unassigned) [2-((3,4-trans)-1-benzyl-4-methylpyrrolidin-3-yl)-7-(tetrahydro-2H-pyran-3-yl)imidazo[5,1-f][1,2,4]triazin-4(3H)-one] | – | PDE1A selectivity (versus PDE9A2) [1]: 28; PDE1B selectivity (versus PDE9A2) [2]: 38
2 | Cc1cc(F)ccc1-c1ncc2c(=O)[nH]c(C3CN(Cc4ccccc4)CC3C)nn12 (single isomer, unassigned; (+)) [(+)-2-((3,4-trans)-1-benzyl-4-methylpyrrolidin-3-yl)-7-(4-fluoro-2-methylphenyl)imidazo[5,1-f][1,2,4]triazin-4(3H)-one] | – | PDE1A selectivity (versus PDE9A2) [1]: 257; PDE1B selectivity (versus PDE9A2) [2]: 225
3 | Cc1ccc(Cl)cc1-c1ncc2c(=O)[nH]c(C3CN(Cc4ccccc4)CC3C)nn12 (single isomer, unassigned; (+)) [(+)-2-((3,4-trans)-1-benzyl-4-methylpyrrolidin-3-yl)-7-(5-chloro-2-methylphenyl)imidazo[5,1-f][1,2,4]triazin-4(3H)-one] | – | PDE1A selectivity (versus PDE9A2) [1]: 276; PDE1B selectivity (versus PDE9A2) [2]: 142
4 | Cc1ccc(F)cc1-c1ncc2c(=O)[nH]c(C3CN(Cc4ccccc4)CC3C)nn12 (single isomer, unassigned; (+)) [(+)-2-((3,4-trans)-1-benzyl-4-methylpyrrolidin-3-yl)-7-(5-fl] [(+)-2-((3,4-trans)-1-benzyl-4-methylpyrrolidin-3-yl)-7-(5-fluoro-2-methylphenyl)imidazo[1,5-f][1,2,4]triazin-4(3H)-one] | – | PDE1A selectivity (versus PDE9A2) [1]: 247; PDE1B selectivity (versus PDE9A2) [2]: 109
5 | CC1CN(Cc2ccccc2)CC1c1nn2c(C3CCOCC3)ncc2c(=O)[nH]1 (single isomer, unassigned; (+)) [(+)-2-((3,4-trans)-1-benzyl-4-methylpyrrolidin-3-yl)-7-(tetr] [(+)-2-((3,4-trans)-1-benzyl-4-methylpyrrolidin-3-yl)-7-(tetrahydro-2H-pyran-4-yl)imidazo[1,5-f][1,2,4]triazin-4(3H)-one] | – | PDE1A selectivity (versus PDE9A2) [1]: 5; PDE1B selectivity (versus PDE9A2) [2]: 5
6 | CC1CN(C(C)c2ccccc2)CC1c1nn2c(C3CCOCC3)ncc2c(=O)[nH]1 (single isomer, unassigned; (+)) [(+)-2-((3,4-trans)-4-methyl-1-((S)-1-phenylethyl)pyrrolidin-] | – | PDE1A selectivity (versus PDE9A2) [1]: 51; PDE1B selectivity (versus PDE9A2) [2]: 99
7 | CC1CN(C(=O)c2ccccc2C#N)CC1c1nn2c(C3CCOCC3)ncc2c(=O)[nH]1 (single isomer, unassigned; (-)) [(−)-2-((3,4-trans)-3-methyl-4-(4-oxo-7-(tetrahydro-2H-pyran-4-yl)-3,4-dihydroimidazo[5,1-f][1,2,4]triazin-2-yl)pyrrolidine-1-carbonyl)benzonitrile] | < 1000 | –
8 | CC1CN(S(=O)(=O)c2ccccc2)CC1c1nn2c(C3CCOCC3)ncc2c(=O)[nH]1 (single isomer, unassigned; (-)) [(−)-2-((3,4-trans)-4-methyl-1-(phenylsulfonyl)pyrrolidin-3-yl)-7-(tetrahydro-2H-pyran-4-yl)imidazo[5,1-f][1,2,4]triazin-4(3H)-one] | 1000 to 10000 | –
9 | CC1CN(C(=O)c2cnccn2)CC1c1nn2c(C3CCOCC3)ncc2c(=O)[nH]1 (single isomer, unassigned; (-)) [(−)-2-((3,4-trans)-4-methyl-1-(pyrazine-2-carbonyl)pyrrolidin-3-yl)-7-(tetrahydro-2H-pyran-4-yl)imidazo[5,1-f][1,2,4]triazin-4(3H)-one] | < 1000 | –
10 | CC1CN(Cc2ccccn2)CC1c1nn2c(C3CCOCC3)ncc2c(=O)[nH]1 (single isomer, unassigned; (-)) [(−)-2-((3,4-trans)-4-methyl-1-(pyridin-2-ylmethyl)pyrrolidin-3-yl)-7-(tetrahydro-2H-pyran-4-yl)imidazo[5,1-f][1,2,4]triazin-4(3H)-one] | < 1000 | –
11 | CC1CN(C(=O)c2ncccn2)CC1c1nn2c(C3CCOCC3)ncc2c(=O)[nH]1 (single isomer, unassigned; (-)) [(−)-2-((3,4-trans)-4-methyl-1-(pyrimidine-2-carbonyl)pyrrolidin-3-yl)-7-(tetrahydro-2H-pyran-4-yl)imidazo[5,1-f][1,2,4]triazin-4(3H)-one] | < 1000 | –
12 | CC1CN(C(=O)c2ccncn2)CC1c1nn2c(C3CCOCC3)ncc2c(=O)[nH]1 (single isomer, unassigned; (-)) [(−)-2-((3,4-trans)-4-methyl-1-(pyrimidine-4-carbonyl)pyrrolidin-3-yl)-7-(tetrahydro-2H-pyran-4-yl)imidazo[5,1-f][1,2,4]triazin-4(3H)-one] | < 1000 | –
13 | CC1CN(C(=O)c2cncnc2)CC1c1nn2c(C3CCOCC3)ncc2c(=O)[nH]1 (single isomer, unassigned; (-)) [(−)-2-((3,4-trans)-4-methyl-1-(pyrimidine-5-carbonyl)pyrrolidin-3-yl)-7-(tetrahydro-2H-pyran-4-yl)imidazo[5,1-f][1,2,4]triazin-4(3H)-one] | < 1000 | –
14 | CC1CN(C(=O)c2ccccn2)CC1c1nn2c(C3CCOCC3)ncc2c(=O)[nH]1 (single isomer, unassigned; (-)) [(−)-2-((3,4-trans)-4-methyl-1-picolinoylpyrrolidin-3-yl)-7-(tetrahydro-2H-pyran-4-yl)imidazo[5,1-f][1,2,4]triazin-4(3H)-one] | < 1000 | –
15 | CC1CN(Cc2ccccc2C#N)CC1c1nn2c(C3CCOCC3)ncc2c(=O)[nH]1 (single isomer, unassigned; (-)) [(−)-2-(((3,4-trans)-3-methyl-4-(4-oxo-7-(tetrahydro-2H-pyran-4-yl)-3,4-dihydroimidazo[5,1-f][1,2,4]triazin-2-yl)pyrrolidin-1-yl)methyl)benzonitrile] | < 1000 | –
16 | CC1CN(S(=O)(=O)c2ccccc2C#N)CC1c1nn2c(C3CCOCC3)ncc2c(=O)[nH]1 (single isomer, unassigned; (-)) [(−)-2-(((3,4-trans)-3-methyl-4-(4-oxo-7-(tetrahydro-2H-pyran-4-yl)-3,4-dihydroimidazo[5,1-f][1,2,4]triazin-2-yl)pyrrolidin-1-yl)sulfonyl)benzonitrile] | < 1000 | –
17 | CC1CN(Cc2cccc(C#N)c2)CC1c1nn2c(C3CCOCC3)ncc2c(=O)[nH]1 (single isomer, unassigned; (-)) [(−)-3-(((3,4-trans)-3-methyl-4-(4-oxo-7-(tetrahydro-2H-pyran-4-yl)-3,4-dihydroimidazo[5,1-f][1,2,4]triazin-2-yl)pyrrolidin-1-yl)methyl)benzonitrile] | < 1000 | –
18 | Cc1ccc(F)cc1-c1ncc2c(=O)[nH]c(C3CN(Cc4ncccn4)CC3C)nn12 (single isomer, unassigned; (-)) [(−)-7-(5-fluoro-2-methylphenyl)-2-((3,4-trans)-4-methyl-1-(pyrimidin-2-ylmethyl)pyrrolidin-3-yl)imidazo[1,5-f][1,2,4]triazin-4(3H)-one] | 1000 to 10000 | –
19 | CC1CN(Cc2ccccc2)CC1c1nn2c(C3CCN(C(=O)OC(C)(C)C)CC3)ncc2c(=O)[nH]1 (single isomer, unassigned; (-)) [(−)-tert-butyl 4-(2-((3,4-trans)-1-benzyl-4-methylpyrrolidin-3-yl)-4-oxo-3,4-dihydroimidazo[1,5-f][1,2,4]triazin-7-yl)piperidine-1-carboxylate] | > 10000 | –
20 | CC1CN(Cc2nc3ccccn3n2)CC1c1nn2c(CC(F)(F)F)ncc2c(=O)[nH]1 (stereo not drawn) [2-((3,4-trans)-1-([1,2,4]triazolo[1,5-a]pyridin-2-ylmethyl)-4-methylpyrrolidin-3-yl)-7-(2,2,2-trifluoroethyl)imidazo[5,1-f][1,2,4]triazin-4(3H)-one] | – | IC50 [3]: < 1000 nM
21 | (+)-2-((3,4-trans)-1-benzyl-4-methylpyrrolidin-3-yl)-7-(piperidin-4-yl)imidazo[1,5-f][1,2,4]triazin-4(3H)-one | 1000 to 10000 | –
22 | (−)-2-((3,4-trans)-1-benzyl-4-methylpyrrolidin-3-yl)-7-(piperidin-4-yl)imidazo[1,5-f][1,2,4]triazin-4(3H)-one | > 10000 | –
